Data published in US10981906B2, “Substituted pyrrolopyridine JAK inhibitors and methods of making and using the same” (ACLARIS THERAPEUTICS, INC., priority 2017, dated 2021).

What was measured:
JAK3 (a.a. 781-1124) = JAK3 (a.a. 781-1124) (Homo sapiens (Human), UniProt P52333); assay: JAK3 enzyme activity assay (SRCtide phosphorylation, Caliper); format: biochemical; details: 2.5 nM JAK3, 1 μM SRCtide, 1 uM ATP, 40 minutes; read-out: JAK3 Inhibition IC50
How it was run: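 2.5 nM JAK3 kinase domain with 1 μM FAM-SRCtide and 1 μM ATP in 20 mM HEPES pH 7.5, 10 mM MgCl2, 2% DMSO, 40 min at room temperature, EDTA stop. Phospho/unphospho peptide separated by mobility shift; 11-point 3-fold series in duplicate, 4-parameter logistic IC50.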

[1] = tested on: IFNγ stimulated STAT1 phosphorylation on Tyr701 (JAK1/2); assay: JAK1/2 cellular target modulation: IFNγ stimulated phospho-STAT1 in PBMC; format: cell-based; details: Homo sapiens, PBMC, IFNγ 10 ng/ml, 1 hour compound preincubation, read-out: Infγ-STAT1 IC50
How it was run: (§1)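 Thawed human PBMC (200,000/well) in complete RPMI/10% FBS preincubated with compound 1 h at 37 °C, then stimulated with IL-2 25 ng/ml for 5 min (pSTAT5 Tyr694) or IFNγ 10 ng/ml for 10 min (pSTAT1 Tyr701). Cells lysed; pSTAT5 by MSD Tyr694/total STAT5a,b assay, pSTAT1 by sandwich ELISA.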

[2] = tested on: IL-2 stimulated STAT5 phosphorylation on Tyr694 (JAK1/3); assay: JAK1/3 cellular target modulation: IL-2 stimulated phospho-STAT5 in PBMC; format: cell-based; details: Homo sapiens, PBMC, IL-2 25 ng/ml, 1 hour compound preincubation, read-out: IL2-STAT5 Inhibition IC50
How it was run: as §1

JAK1 = JAK1 (Homo sapiens (Human), UniProt P23458); assay: JAK1 enzyme activity assay (Thermo Fisher SelectScreen Z-lyte); format: biochemical; details: 1 hour kinase reaction, read-out: JAK1 Inhibition IC50
Sequence of JAK1 (P23458 whole entry): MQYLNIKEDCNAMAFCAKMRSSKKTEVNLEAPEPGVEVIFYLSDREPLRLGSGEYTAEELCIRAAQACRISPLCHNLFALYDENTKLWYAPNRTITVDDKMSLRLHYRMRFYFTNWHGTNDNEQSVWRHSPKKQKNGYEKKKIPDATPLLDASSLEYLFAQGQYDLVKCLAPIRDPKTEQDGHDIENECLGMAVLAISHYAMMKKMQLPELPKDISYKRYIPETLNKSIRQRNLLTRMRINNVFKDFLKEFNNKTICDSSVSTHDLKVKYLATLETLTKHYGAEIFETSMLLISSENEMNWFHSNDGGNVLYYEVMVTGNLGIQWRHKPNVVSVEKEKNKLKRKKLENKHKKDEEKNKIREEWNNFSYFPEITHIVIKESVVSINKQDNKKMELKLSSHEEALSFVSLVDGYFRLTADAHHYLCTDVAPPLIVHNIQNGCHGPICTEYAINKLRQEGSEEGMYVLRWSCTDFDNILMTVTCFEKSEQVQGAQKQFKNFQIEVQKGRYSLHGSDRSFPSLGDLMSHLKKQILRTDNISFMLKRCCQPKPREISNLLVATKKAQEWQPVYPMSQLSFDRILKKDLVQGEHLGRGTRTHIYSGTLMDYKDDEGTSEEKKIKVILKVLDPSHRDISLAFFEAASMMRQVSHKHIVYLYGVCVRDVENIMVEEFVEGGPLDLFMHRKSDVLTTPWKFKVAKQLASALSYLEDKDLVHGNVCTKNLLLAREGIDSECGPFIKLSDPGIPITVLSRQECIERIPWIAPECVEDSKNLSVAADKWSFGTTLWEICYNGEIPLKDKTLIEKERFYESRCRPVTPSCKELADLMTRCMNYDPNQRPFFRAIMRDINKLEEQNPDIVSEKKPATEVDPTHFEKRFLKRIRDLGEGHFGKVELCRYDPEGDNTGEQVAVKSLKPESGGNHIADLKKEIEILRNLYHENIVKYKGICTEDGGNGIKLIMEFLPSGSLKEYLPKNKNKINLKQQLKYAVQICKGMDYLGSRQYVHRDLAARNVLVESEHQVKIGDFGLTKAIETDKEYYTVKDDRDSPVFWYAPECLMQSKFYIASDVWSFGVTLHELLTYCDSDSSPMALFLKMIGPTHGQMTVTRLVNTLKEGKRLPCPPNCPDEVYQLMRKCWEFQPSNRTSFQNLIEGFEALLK
How it was run: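 Z-lyte FRET assay with 21.2-91.5 ng JAK1 and 2 μM Tyr 06 peptide in 50 mM HEPES pH 7.0 with 10 mM MgCl2, reacted 1 hour before development reagent. Compounds tested in an 11-point dose-response from […] to 0.34 nM. IC50 from 4-parameter logistic fit of emission ratio.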

Sequence of JAK3 (a.a. 781-1124) (P52333 781-1124): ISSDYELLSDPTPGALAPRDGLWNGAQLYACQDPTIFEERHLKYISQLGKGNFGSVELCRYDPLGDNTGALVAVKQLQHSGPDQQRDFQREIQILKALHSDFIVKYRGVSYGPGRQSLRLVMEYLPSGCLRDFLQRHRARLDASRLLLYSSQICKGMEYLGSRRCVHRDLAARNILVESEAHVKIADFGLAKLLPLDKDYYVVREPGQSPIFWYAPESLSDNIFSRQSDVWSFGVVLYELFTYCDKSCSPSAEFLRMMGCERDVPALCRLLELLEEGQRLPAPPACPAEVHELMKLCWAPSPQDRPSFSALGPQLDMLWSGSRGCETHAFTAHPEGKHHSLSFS

Row | SMILES | IC50 (JAK3 (a.a. 781-1124)) | IC50 [1] | IC50 [2] | IC50 (JAK1)
1 | CCCOC(=O)c1cnc2[nH]ccc2c1N[C@@H]1CCCN(C(=O)CC#N)C1 [Example 130, propyl (R)-4-((1-(2-cyanoacetyl)piperidin-3-yl)amino)-1H-pyrrolo[2,3-b]pyridine-5-carboxylate] | ≤ 10 nM | 100 to 1000 nM | 100 to 1000 nM | ≤ 10 nM
2 | COCCOC(=O)c1cnc2[nH]ccc2c1N[C@@H]1CCCN(C(=O)CC#N)C1 [Example 131, 2-methoxyethyl (R)-4-((1-(2-cyanoacetyl)piperidin-3-yl)amino)-1H-pyrrolo[2,3-b]pyridine-5-carboxylate] | 10 to 100 nM | 100 to 1000 nM | 100 to 1000 nM | 10 to 100 nM
3 | CCOC(=O)c1cnc2[nH]ccc2c1NC1CCCC(CCC#N)C1 (stereo not drawn) [Example 132, ethyl 4-((3-(2-cyanoethyl)cyclohexyl)amino)-1H-pyrrolo[2,3-b]pyridine-5-carboxylate] | ≤ 10 nM | 100 to 1000 nM | ≤ 100 nM | ≤ 10 nM
4 | CCOC(=O)c1cnc2[nH]ccc2c1NC1CCCC(O)C1 (stereo not drawn) [Example 141, ethyl 4-((3-hydroxycyclohexyl)amino)-1H-pyrrolo[2,3-b]pyridine-5-carboxylate] | 10 to 100 nM | > 1000 nM | 100 to 1000 nM | 10 to 100 nM
5 | CCOC(=O)c1cnc2[nH]ccc2c1NC1CCC(O)C(CC#N)C1 (stereo not drawn) [Example 142, ethyl 4-((3-(cyanomethyl)-4-hydroxycyclohexyl)amino)-1H-pyrrolo[2,3-b]pyridine-5-carboxylate] | 10 to 100 nM | 100 to 1000 nM | ≤ 100 nM | ≤ 10 nM
6 | CCOC(=O)c1cnc2[nH]ccc2c1N[C@@H]1CCCN(C(=O)C(C)(C)C#N)C1 [Example 144, ethyl (R)-4-((1-(2-cyano-2-methylpropanoyl)piperidin-3-yl)amino)-1H-pyrrolo[2,3-b]pyridine-5-carboxylate] | 10 to 100 nM | 100 to 1000 nM | 100 to 1000 nM | 10 to 100 nM

Other lines, results leading:

Row | IC50 (JAK3 (a.a. 781-1124)) | IC50 [1] | IC50 [2] | IC50 (JAK1) | SMILES
7 | 10 to 100 nM | 100 to 1000 nM | ≤ 100 nM | ≤ 10 nM | N#CCC(=O)N1CCC[C@@H](Nc2c(C(=O)OCC3CC3)cnc3[nH]ccc23)C1 [Example 145, cyclopropylmethyl (R)-4-((1-(2-cyanoacetyl)piperidin-3-yl)amino)-1H-pyrrolo[2,3-b]pyridine-5-carboxylate]
8 | ≤ 10 nM | ≤ 100 nM | ≤ 100 nM | ≤ 10 nM | CCOC(=O)c1cnc2[nH]ccc2c1N[C@@H]1CC[C@H](C)N(C(=O)CC#N)C1 [Example 146, ethyl 4-(((3R,6S)-1-(2-cyanoacetyl)-6-methylpiperidin-3-yl)amino)-1H-pyrrolo[2,3-b]pyridine-5-carboxylate]
9 | 100 to 1000 nM | > 1000 nM | 100 to 1000 nM | 100 to 1000 nM | N#CCC[C@H]1CCC[C@H](Nc2c(C(=O)O)cnc3[nH]ccc23)C1 [Example 147, 4-(((1S,3R)-3-(2-cyanoethyl)cyclohexyl)amino)-1H-pyrrolo[2,3-b]pyridine-5-carboxylic acid]
